In the experiment the target is T1, human form of induced nitric oxide synthase (Homo sapiens, UniProt P35228).
T1 construct: Nitric oxide synthase is produced by cells in response to interferon; endogenous in cells; host or cells: DLD1 human colon adenocarcinoma cell line (European Collection of Animal Cell Culture, cell line number 90102540), induced with IL-1beta and IFN-gamma; crude lysate
Kind of experiment: activity against the human form of induced nitric oxide synthase, lysate of induced human colon adenocarcinoma cell line DLD1. Conditions: IL-1β and IFN-γ induced, preincubated 1 hour at 37° C., then 1 hour at 37° C., read-out: IC50 (concentration of drug substance which gives 50% enzyme inhibition in the assay). It is filed as biochemical.

Structures are written as SMILES. pIC50: −log10 of the molar value. Structures can show the parent of a compound that is named as a salt.

Experimental: Enzyme is prepared, after induction, from the cultured human colon adenocarcinoma cell line DLD1 (obtained from the European Collection of Animal Cell Culture--cell line number 90102540). DLD1 cells are cultured in RPMI 1640 medium supplemented with 10% foetal bovine serum, 4 mM L-glutamine and antibiotics (100 units/ml penicillin G, 100 μg/ml streptomycin and 0.25 μg/ml amphotericin B). Cells are routinely grown in 225 cm^3 flasks containing 35 ml kept at 37° C. and in a humified atmosphere containing 5% CO2.
Nitric oxide synthase is produced by cells in response to interferon-γ (IFN-γ) and inter-leukin-1β (IL-1β). The medium from confluent flasks is removed and replaced with 25 ml (per flask) of fresh medium containing 250 units/ml IL-1β and 1000 units/ml IFN-γ. After a period of 17-20 hours in culture, harvesting of cells is accomplished by scraping the cell monolayer from the flask surface into the culture medium. […]
Labelled L-citrulline is separated from labelled L-arginine using Dowex AG-50W. […] After allowing the samples to dry the L-citrulline is quantified by scintillation counting.
Compounds are tested at a range of concentrations and from the inhibitions obtained IC50 values are calculated.

With `NC1=NC(c2ccccc2)Nc2ccccc21` (centres unmarked) [Example 1, 1,2-Dihydro-2-phenyl-4-quinazolinamine hydrochloride], the pIC50 is above 4.60.

On to `CCOC(=O)NCCC1N=C(N)c2ccccc2N1` (centres unmarked) [Example 52, Ethyl N-(4-Amino-1,2-dihydroquinazolin-2-ylethyl)carbamate hydrochloride], for which the pIC50 was above 4.60.

The values are drawn from US5883102A, “Pharmaceutically active compounds” (Astra Pharmaceuticals Limited, priority 1995, dated 1999).
